Experimental data: patent US11272709B2, “Amidine substituted benzoyl derivatives useful as herbicides” (Syngenta Participations AG, priority 2018, dated 2022)

Legend:
Assay type in all cases: in vivo
Conditions in all cases: 500 g/h, evaluated after 13 days
[1] = tested on: Amaranthus retoflexus (AMARE); test: Pre-emergence herbicidal glasshouse test, Amaranthus retoflexus (AMARE)
Outline: (§1)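 Pot-grown plants in standard soil were sprayed one day after sowing (pre-emergence) or after 8 days' cultivation (post-emergence) at 500 g/h unless otherwise indicated, in acetone/water (50:50) with 0.5% Tween 20. Glasshouse at 24/16 °C day/night, 14 h light, 65% humidity; percent damage was scored after 13 days on a 1–5 scale (5=80-100%, 1=0-19%).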

[2] = tested on: Abutilon theophrasti (ABUTH); test: Pre-emergence herbicidal glasshouse test, Abutilon theophrasti (ABUTH)
Outline: as §1

Setaria faberi (SETFA) [3] = test: Pre-emergence herbicidal glasshouse test, Setaria faberi (SETFA)
Outline: as §1

[4] = tested on: Echinochloa crus-galli (ECHCG); test: Pre-emergence herbicidal glasshouse test, Echinochloa crus-galli (ECHCG)
Outline: as §1

[5] = tested on: Ipomoea hederacea (IPOHE); test: Pre-emergence herbicidal glasshouse test, Ipomoea hederacea (IPOHE)
Outline: as §1

[6] = tested on: Amaranthus retoflexus (AMARE); test: Post-emergence herbicidal glasshouse test, Amaranthus retoflexus (AMARE)
Outline: as §1

[7] = tested on: Abutilon theophrasti (ABUTH); test: Post-emergence herbicidal glasshouse test, Abutilon theophrasti (ABUTH)
Outline: as §1

Setaria faberi (SETFA) [8] = test: Post-emergence herbicidal glasshouse test, Setaria faberi (SETFA)
Outline: as §1

[9] = tested on: Echinochloa crus-galli (ECHCG); test: Post-emergence herbicidal glasshouse test, Echinochloa crus-galli (ECHCG)
Outline: as §1

[10] = tested on: Ipomoea hederacea (IPOHE); test: Post-emergence herbicidal glasshouse test, Ipomoea hederacea (IPOHE)
Outline: as §1

Cc1nnc(NC(=O)c2ccc(S(C)(=O)=O)c(N=CN(C)C(C)C)c2C)o1 [Compound 2.144]
PRE Application AMARE, percentage damage (five point scale) [1]: 5 (5=80-100%) | PRE Application ABUTH, percentage damage (five point scale) [2]: 5 (5=80-100%) | PRE Application SETFA, percentage damage (five point scale) (Setaria faberi (SETFA) [3]): 5 (5=80-100%) | PRE Application ECHCG, percentage damage (five point scale) [4]: 5 (5=80-100%) | PRE Application IPOHE, percentage damage (five point scale) [5]: 3 (3=40-59%) | POST Application AMARE, percentage damage (five point scale) [6]: 5 (5=80-100%) | POST Application ABUTH, percentage damage (five point scale) [7]: 5 (5=80-100%) | POST Application SETFA, percentage damage (five point scale) (Setaria faberi (SETFA) [8]): 5 (5=80-100%) | POST Application ECHCG, percentage damage (five point scale) [9]: 5 (5=80-100%) | POST Application IPOHE, percentage damage (five point scale) [10]: 4 (4=60-79%)

CC(=Nc1c(C(F)(F)F)ccc(C(=O)Nc2nnc(C)o2)c1Cl)N(C)C [Compound 2.148]
PRE Application AMARE, percentage damage (five point scale) [1]: 5 (5=80-100%) | PRE Application ABUTH, percentage damage (five point scale) [2]: 5 (5=80-100%) | PRE Application SETFA, percentage damage (five point scale) (Setaria faberi (SETFA) [3]): 5 (5=80-100%) | PRE Application ECHCG, percentage damage (five point scale) [4]: 5 (5=80-100%) | PRE Application IPOHE, percentage damage (five point scale) [5]: 5 (5=80-100%) | POST Application AMARE, percentage damage (five point scale) [6]: 5 (5=80-100%) | POST Application ABUTH, percentage damage (five point scale) [7]: 5 (5=80-100%) | POST Application SETFA, percentage damage (five point scale) (Setaria faberi (SETFA) [8]): 5 (5=80-100%) | POST Application ECHCG, percentage damage (five point scale) [9]: 5 (5=80-100%) | POST Application IPOHE, percentage damage (five point scale) [10]: 3 (3=40-59%)

Cc1c(C(=O)C2=C(O)CCCC2=O)ccc(C(F)(F)F)c1N=CN(C)C [Compound 3.017]
PRE Application AMARE, percentage damage (five point scale) [1]: 5 (5=80-100%) | PRE Application ABUTH, percentage damage (five point scale) [2]: 5 (5=80-100%) | PRE Application SETFA, percentage damage (five point scale) (Setaria faberi (SETFA) [3]): 4 (4=60-79%) | PRE Application ECHCG, percentage damage (five point scale) [4]: 5 (5=80-100%) | PRE Application IPOHE, percentage damage (five point scale) [5]: 5 (5=80-100%) | POST Application AMARE, percentage damage (five point scale) [6]: 3 (3=40-59%) | POST Application ABUTH, percentage damage (five point scale) [7]: 5 (5=80-100%) | POST Application SETFA, percentage damage (five point scale) (Setaria faberi (SETFA) [8]): 5 (5=80-100%) | POST Application ECHCG, percentage damage (five point scale) [9]: 5 (5=80-100%) | POST Application IPOHE, percentage damage (five point scale) [10]: 5 (5=80-100%)

Cc1c(C(=O)C2=C(O)CCCC2=O)ccc(S(C)(=O)=O)c1N=CN(C)C [Compound 3.025]
PRE Application AMARE, percentage damage (five point scale) [1]: 5 (5=80-100%) | PRE Application ABUTH, percentage damage (five point scale) [2]: 5 (5=80-100%) | PRE Application SETFA, percentage damage (five point scale) (Setaria faberi (SETFA) [3]): 4 (4=60-79%) | PRE Application ECHCG, percentage damage (five point scale) [4]: 5 (5=80-100%) | PRE Application IPOHE, percentage damage (five point scale) [5]: 4 (4=60-79%) | POST Application AMARE, percentage damage (five point scale) [6]: 5 (5=80-100%) | POST Application ABUTH, percentage damage (five point scale) [7]: 5 (5=80-100%) | POST Application SETFA, percentage damage (five point scale) (Setaria faberi (SETFA) [8]): 5 (5=80-100%) | POST Application ECHCG, percentage damage (five point scale) [9]: 5 (5=80-100%) | POST Application IPOHE, percentage damage (five point scale) [10]: 5 (5=80-100%)

CN(C)C=Nc1c(C(F)(F)F)ccc(C(=O)C2=C(O)CCCC2=O)c1Cl [Compound 3.049]
PRE Application AMARE, percentage damage (five point scale) [1]: 5 (5=80-100%) | PRE Application ABUTH, percentage damage (five point scale) [2]: 5 (5=80-100%) | PRE Application SETFA, percentage damage (five point scale) (Setaria faberi (SETFA) [3]): 5 (5=80-100%) | PRE Application ECHCG, percentage damage (five point scale) [4]: 5 (5=80-100%) | PRE Application IPOHE, percentage damage (five point scale) [5]: 5 (5=80-100%) | POST Application AMARE, percentage damage (five point scale) [6]: 5 (5=80-100%) | POST Application ABUTH, percentage damage (five point scale) [7]: 5 (5=80-100%) | POST Application SETFA, percentage damage (five point scale) (Setaria faberi (SETFA) [8]): 5 (5=80-100%) | POST Application ECHCG, percentage damage (five point scale) [9]: 5 (5=80-100%) | POST Application IPOHE, percentage damage (five point scale) [10]: 5 (5=80-100%)

CN(C)C=Nc1c(S(C)(=O)=O)ccc(C(=O)C2=C(O)CCCC2=O)c1Cl [Compound 3.057]
PRE Application AMARE, percentage damage (five point scale) [1]: 5 (5=80-100%) | PRE Application ABUTH, percentage damage (five point scale) [2]: 5 (5=80-100%) | PRE Application SETFA, percentage damage (five point scale) (Setaria faberi (SETFA) [3]): 5 (5=80-100%) | PRE Application ECHCG, percentage damage (five point scale) [4]: 5 (5=80-100%) | PRE Application IPOHE, percentage damage (five point scale) [5]: 5 (5=80-100%) | POST Application AMARE, percentage damage (five point scale) [6]: 5 (5=80-100%) | POST Application ABUTH, percentage damage (five point scale) [7]: 5 (5=80-100%) | POST Application SETFA, percentage damage (five point scale) (Setaria faberi (SETFA) [8]): 5 (5=80-100%) | POST Application ECHCG, percentage damage (five point scale) [9]: 5 (5=80-100%) | POST Application IPOHE, percentage damage (five point scale) [10]: 5 (5=80-100%)

CN(C=Nc1c(C(F)(F)F)ccc(C(=O)C2=C(O)CCCC2=O)c1Cl)CC(F)(F)F [Compound 3.130]
PRE Application AMARE, percentage damage (five point scale) [1]: 5 (5=80-100%) | PRE Application ABUTH, percentage damage (five point scale) [2]: 5 (5=80-100%) | PRE Application SETFA, percentage damage (five point scale) (Setaria faberi (SETFA) [3]): 5 (5=80-100%) | PRE Application ECHCG, percentage damage (five point scale) [4]: 5 (5=80-100%) | PRE Application IPOHE, percentage damage (five point scale) [5]: 5 (5=80-100%) | POST Application AMARE, percentage damage (five point scale) [6]: 5 (5=80-100%) | POST Application ABUTH, percentage damage (five point scale) [7]: 5 (5=80-100%) | POST Application SETFA, percentage damage (five point scale) (Setaria faberi (SETFA) [8]): 5 (5=80-100%) | POST Application ECHCG, percentage damage (five point scale) [9]: 5 (5=80-100%) | POST Application IPOHE, percentage damage (five point scale) [10]: 4 (4=60-79%)

CON=C(C)N(C)Cc1c(C(F)(F)F)ccc(C(=O)Nc2nnnn2C)c1Cl [Compound 4.014]
PRE Application AMARE, percentage damage (five point scale) [1]: 5 (5=80-100%) | PRE Application ABUTH, percentage damage (five point scale) [2]: 5 (5=80-100%) | PRE Application SETFA, percentage damage (five point scale) (Setaria faberi (SETFA) [3]): 5 (5=80-100%) | PRE Application ECHCG, percentage damage (five point scale) [4]: 5 (5=80-100%) | PRE Application IPOHE, percentage damage (five point scale) [5]: 5 (5=80-100%) | POST Application AMARE, percentage damage (five point scale) [6]: 5 (5=80-100%) | POST Application ABUTH, percentage damage (five point scale) [7]: 5 (5=80-100%) | POST Application SETFA, percentage damage (five point scale) (Setaria faberi (SETFA) [8]): 5 (5=80-100%) | POST Application ECHCG, percentage damage (five point scale) [9]: 5 (5=80-100%) | POST Application IPOHE, percentage damage (five point scale) [10]: 5 (5=80-100%)

CON=C(C)N(C)Cc1c(S(C)(=O)=O)ccc(C(=O)Nc2nnnn2C)c1Cl [Compound 4.016, 2-chloro-3-[[[N-methoxy-C-methyl-carbonimidoyl]-methyl-amino]methyl]-4-methylsulfonyl-N-(1-methyltetrazol-5-yl)benzamide]
PRE Application AMARE, percentage damage (five point scale) [1]: 5 (5=80-100%) | PRE Application ABUTH, percentage damage (five point scale) [2]: 5 (5=80-100%) | PRE Application SETFA, percentage damage (five point scale) (Setaria faberi (SETFA) [3]): 5 (5=80-100%) | PRE Application ECHCG, percentage damage (five point scale) [4]: 5 (5=80-100%) | PRE Application IPOHE, percentage damage (five point scale) [5]: 5 (5=80-100%) | POST Application AMARE, percentage damage (five point scale) [6]: 4 (4=60-79%) | POST Application ABUTH, percentage damage (five point scale) [7]: 3 (3=40-59%) | POST Application SETFA, percentage damage (five point scale) (Setaria faberi (SETFA) [8]): 5 (5=80-100%) | POST Application ECHCG, percentage damage (five point scale) [9]: 5 (5=80-100%) | POST Application IPOHE, percentage damage (five point scale) [10]: 4 (4=60-79%)

CON=C(C)N(C)Cc1c(S(C)(=O)=O)ccc(C(=O)Nc2nnc(C)o2)c1Cl [Compound 5.016]
PRE Application AMARE, percentage damage (five point scale) [1]: 5 (5=80-100%) | PRE Application ABUTH, percentage damage (five point scale) [2]: 5 (5=80-100%) | PRE Application SETFA, percentage damage (five point scale) (Setaria faberi (SETFA) [3]): 5 (5=80-100%) | PRE Application ECHCG, percentage damage (five point scale) [4]: 5 (5=80-100%) | PRE Application IPOHE, percentage damage (five point scale) [5]: 5 (5=80-100%) | POST Application AMARE, percentage damage (five point scale) [6]: 4 (4=60-79%) | POST Application ABUTH, percentage damage (five point scale) [7]: 3 (3=40-59%) | POST Application SETFA, percentage damage (five point scale) (Setaria faberi (SETFA) [8]): 5 (5=80-100%) | POST Application ECHCG, percentage damage (five point scale) [9]: 5 (5=80-100%) | POST Application IPOHE, percentage damage (five point scale) [10]: 4 (4=60-79%)

CCCn1nnnc1NC(=O)c1ccc(S(C)(=O)=O)c(N=CN(C)C)c1C [Compound 7.002]
PRE Application AMARE, percentage damage (five point scale) [1]: 5 (5=80-100%) | PRE Application ABUTH, percentage damage (five point scale) [2]: 5 (5=80-100%) | PRE Application SETFA, percentage damage (five point scale) (Setaria faberi (SETFA) [3]): 5 (5=80-100%) | PRE Application ECHCG, percentage damage (five point scale) [4]: 5 (5=80-100%) | PRE Application IPOHE, percentage damage (five point scale) [5]: 5 (5=80-100%) | POST Application AMARE, percentage damage (five point scale) [6]: 5 (5=80-100%) | POST Application ABUTH, percentage damage (five point scale) [7]: 5 (5=80-100%) | POST Application SETFA, percentage damage (five point scale) (Setaria faberi (SETFA) [8]): 5 (5=80-100%) | POST Application ECHCG, percentage damage (five point scale) [9]: 5 (5=80-100%) | POST Application IPOHE, percentage damage (five point scale) [10]: 4 (4=60-79%)
